{"source": "patent US12491182B2", "about": "“Polymorphs of triazole antifungal compound PC945” (Pulmocide Limited, priority 2019, dated 2025)", "test": "Comparative pharmacokinetic profiling of Forms 1 and 2 by inhalation administration to rats", "format": "in vivo, male RccHan:WIST rat", "conditions": "for Drug Concentration in Animal by No. (plasma): individual animals", "source_text": "A study was undertaken to compare the time-course of unchanged drug concentrations in plasma following a single inhalation dose of either Form 1 or Form 2 in rats.\nThe male RccHan™:WIST rat was considered a suitable species and strain because of its acceptance by regulatory agencies. The inhalation route of administration was chosen to simulate the conditions of clinical administration. A total of 14 of animals (six animals per group with two spare animals), 10 to 12 weeks of age and weighing 306 to 341 g at the start of drug treatment, were used in the study. Treatment consisted of a single 2 hour inhalation exposure with a nebulised formulation of either micronised Form 1 (98.94% purity) to Group 1 animals or micronised Form 2 (98.10% purity) to Group 2 animals. The pharmacokinetic parameters of the two polymorphic forms were determined to support pharmacology and toxicology studies in animals and clinical studies in man.\nSuspensions were manufactured by first preparing a concentrated solution of the surfactants (wetting solution) and a saline solution. These were then used to make the vehicle. A saline solution was prepared as follows. Sodium chloride (50 g) was weighed into a 5000 mL volumetric flask, made up to volume with water, stirred with a magnetic stirrer for 10 min and then passed through a 0.22 μm membrane filter. Wetting solution was prepared as follows. Lipoid S100 (10 g) was weighed into a 2000 mL Duran bottle, 1000 g of propylene glycol was added and the mixture was stirred on a Silverson mixer equipped with a 1″ high shear screen for 1 min at 8000 rpm and then passed through a 0.22 μm membrane filter. Vehicle was prepared as follows. The wetting solution (500 mL) was transferred into a 5000 mL volumetric flask, made to volume with saline solution, stirred with a magnetic stirrer for 10 min and then passed through a 0.22 μm membrane filter.\nA 1000 mL batch of 4 mg/mL suspension of Compound I was prepared as follows. Compound I (4.00 g) was weighed into a small beaker, 100 mL of wetting solution was added and the mixture was stirred with a Silverson mixer equipped with a 1″ high shear screen for 5 min at 8000 rpm. The mixture was then transferred into a 5000 mL Duran bottle using saline solution and stirred using a Silverson mixer equipped with a 1″ high shear screen for 5 min at 8000 rpm, after which it was stored between 2 and 8° C. Higher or lower strength suspensions (range 0.2 to 20 mg/mL) were prepared by adjusting the input weight of API as appropriate for higher mg/mL suspensions or by further diluting with vehicle for lower mg/mL suspensions. All formulations were magnetically stirred for at least 30 min, and assessed visually prior to administration.\nRats were acclimatised to the inhalation dosing procedure for three consecutive days prior to dosing. Animals were treated with the test substance by aerosol inhalation administration for 120 min via snout only exposure, at a target aerosol concentration of 25.2 μg/L. The estimations of inhaled dose from an exposure duration of 2 hr and an assumed body weight of 300 g were calculated using the formula:\n[formula] where: C is the aerosol concentration (μg/L); RMV is the respiratory minute volume (L/min); D is the duration of exposure (120 mins) and BW is the group mean body weight (kg). The mean achieved aerosol concentrations, estimated inhaled dose and particle size distribution (PSD) summary data are presented below. (Table 14).\nVenous blood samples (0.3 mL) were taken from the tail vein of animals and samples collected after dosing (2 hr from the start of dose administration) and thereafter at times 3, 4, 6, 8, 12, 24, 28, 32, 36 and 48 hr following treatment. Samples were treated with K2EDTA anticoagulant, spun at 2000 g for 10 min at 4° C. and then stored frozen (−20° C.±10) whilst awaiting analysis. Plasma samples were subsequently analysed for Compound I by LGC using a validated LC-MS/MS method. […]", "note": "“And” between values parts separate entries of the source, which are not always exact repeats. Equal entries are not always repeated."}
{"smiles": "Cc1cc(N2CCN(c3ccc(C(=O)Nc4ccc(F)cc4)cc3)CC2)ccc1OC[C@@H]1CO[C@@](Cn2cncn2)(c2ccc(F)cc2F)C1", "note": "[Form 1, 4-(4-(4-(((3R,5R)-5-((1H-1,2,4-triazol-1-yl)methyl)-5-(2,4-difluorophenyl)tetrahydrofuran-3-yl)methoxy)-3-methylphenyl)piperazin-1-yl)-N-(4-fluorophenyl)benzamide]", "values": [{"measurement": "Tmax", "setting": "RccHan:WIST, rat, plasma, inhaled or intranasal, male rats, single 2 hr inhalation, nominal dose 2.2 mg/kg, from start of exposure, read-out: Tmax", "value": 6, "unit": "h"}, {"measurement": "Drug Concentration in Animal by No. (plasma)", "setting": "male rats, inhalation, nominal 2.2 mg/kg, 3 hr from start of exposure", "value": "5.31 ng/mL and 4.35 ng/mL and 2.41 ng/mL"}, {"measurement": "Drug Concentration in Animal by No. (plasma)", "setting": "male rats, inhalation, nominal 2.2 mg/kg, 4 hr from start of exposure", "value": "4.73 ng/mL and 6.32 ng/mL and 3.78 ng/mL"}, {"measurement": "Drug Concentration in Animal by No. (plasma)", "setting": "male rats, inhalation, nominal 2.2 mg/kg, 6 hr from start of exposure", "value": "5.38 ng/mL and 3.97 ng/mL and 5.49 ng/mL"}, {"measurement": "Drug Concentration in Animal by No. (plasma)", "setting": "male rats, inhalation, nominal 2.2 mg/kg, 8 hr from start of exposure", "value": "3.28 ng/mL and 2.88 ng/mL"}, {"measurement": "Drug Concentration Mean (plasma)", "setting": "male rats, inhalation, nominal 2.2 mg/kg, 8 hr, group mean", "value": 3.08, "unit": "ng/mL"}, {"measurement": "Drug Concentration in Animal by No. (plasma)", "setting": "male rats, inhalation, nominal 2.2 mg/kg, 12 hr from start of exposure", "value": "4.05 ng/mL and 3.64 ng/mL"}, {"measurement": "Drug Concentration in Animal by No. (plasma)", "setting": "male rats, inhalation, nominal 2.2 mg/kg, 24 hr from start of exposure", "value": "2.47 ng/mL and 3.00 ng/mL and 3.85 ng/mL and 2.75 ng/mL and 2.02 ng/mL and 3.03 ng/mL"}, {"measurement": "Drug Concentration in Animal by No. (plasma)", "setting": "male rats, inhalation, nominal 2.2 mg/kg, 28 hr from start of exposure", "value": "1.85 ng/mL and 2.22 ng/mL and 3.92 ng/mL and 1.87 ng/mL and 2.04 ng/mL"}, {"measurement": "Drug Concentration in Animal by No. (plasma)", "setting": "male rats, inhalation, nominal 2.2 mg/kg, 32 hr from start of exposure", "value": "1.36 ng/mL and 1.85 ng/mL and 2.79 ng/mL and 1.66 ng/mL and 2.20 ng/mL and 1.32 ng/mL"}, {"measurement": "Drug Concentration Mean (plasma)", "setting": "male rats, inhalation, nominal 2.2 mg/kg, 32 hr, group mean", "value": 1.86, "unit": "ng/mL"}, {"measurement": "Drug Concentration in Animal by No. (plasma)", "setting": "male rats, inhalation, nominal 2.2 mg/kg, 36 hr from start of exposure", "value": "1.21 ng/mL and 1.36 ng/mL and 1.74 ng/mL and 1.70 ng/mL and 1.01 ng/mL and 1.80 ng/mL"}, {"measurement": "Drug Concentration Mean (plasma)", "setting": "male rats, inhalation, nominal 2.2 mg/kg, 36 hr, group mean", "value": 1.47, "unit": "ng/mL"}, {"measurement": "Drug Concentration in Animal by No. (plasma)", "setting": "male rats, inhalation, nominal 2.2 mg/kg, 48 hr from start of exposure", "value": "1.10 ng/mL and 1.45 ng/mL and 1.28 ng/mL and 1.26 ng/mL and 1.19 ng/mL"}, {"measurement": "Drug Concentration Mean (plasma)", "setting": "male rats, inhalation, nominal 2.2 mg/kg, IAD (immediately after dosing), group mean", "value": 1.11, "unit": "ng/mL"}, {"measurement": "Drug Concentration in Animal by No. (plasma)", "setting": "male rats, inhalation, nominal 2.2 mg/kg, IAD (immediately after dosing)", "value": "1.16 ng/mL and 0.826 ng/mL and 1.35 ng/mL"}, {"measurement": "AUCt dose normalised", "setting": "male rats, inhalation, AUCt of Form 2 normalised to dose achieved for Form 1 (2.48 mg/kg), 2.48 mg/kg", "value": 122, "unit": "ng·h/mL"}, {"measurement": "time up to which plasma concentrations remained quantifiable", "setting": "male rats, inhalation, after the start of exposure (last sampling time)", "value": 48, "unit": "h"}, {"measurement": "Cmax", "setting": "male, RccHan:WIST, rat, plasma, inhaled or intranasal, 2.2 mg/kg, single 2 hr inhalation of nebulised aqueous suspension, nominal dose 2.2 mg/kg, read-out: Cmax (maximum mean plasma concentration)", "value": 4.95, "unit": "ng/mL"}, {"measurement": "AUC(0-t)", "setting": "male, RccHan:WIST, rat, plasma, inhaled or intranasal, 2.2 mg/kg, single 2 hr inhalation, nominal dose 2.2 mg/kg, 0-48 hr", "value": 122, "unit": "ng·h/mL"}, {"measurement": "concentration at 3 h", "setting": "male, RccHan:WIST, rat, plasma, inhaled, 2.2 mg/kg, inhalation, nominal 2.2 mg/kg, 3 hr, group mean, read-out: Drug Concentration Mean (plasma)", "value": 4.02, "unit": "ng/mL"}, {"measurement": "concentration at 4 h", "setting": "male, RccHan:WIST, rat, plasma, inhaled, 2.2 mg/kg, inhalation, nominal 2.2 mg/kg, 4 hr, group mean, read-out: Drug Concentration Mean (plasma)", "value": 4.94, "unit": "ng/mL"}, {"measurement": "concentration at 6 h", "setting": "male, RccHan:WIST, rat, plasma, inhaled, 2.2 mg/kg, inhalation, nominal 2.2 mg/kg, 6 hr, group mean, read-out: Drug Concentration Mean (plasma)", "value": 4.95, "unit": "ng/mL"}, {"measurement": "concentration at 12 h", "setting": "male, RccHan:WIST, rat, plasma, inhaled, 2.2 mg/kg, inhalation, nominal 2.2 mg/kg, 12 hr, group mean, read-out: Drug Concentration Mean (plasma)", "value": 3.85, "unit": "ng/mL"}, {"measurement": "concentration at 24 h", "setting": "male, RccHan:WIST, rat, plasma, inhaled, 2.2 mg/kg, inhalation, nominal 2.2 mg/kg, 24 hr, group mean, read-out: Drug Concentration Mean (plasma)", "value": 2.85, "unit": "ng/mL"}, {"measurement": "concentration at 28 h", "setting": "male, RccHan:WIST, rat, plasma, inhaled, 2.2 mg/kg, inhalation, nominal 2.2 mg/kg, 28 hr, group mean, read-out: Drug Concentration Mean (plasma)", "value": 2.38, "unit": "ng/mL"}, {"measurement": "concentration at 48 h", "setting": "male, RccHan:WIST, rat, plasma, inhaled, 2.2 mg/kg, inhalation, nominal 2.2 mg/kg, 48 hr, group mean, read-out: Drug Concentration Mean (plasma)", "value": 1.26, "unit": "ng/mL"}]}
